Measured values as given in ChEMBL document CHEMBL1201862, “PubChem BioAssay data set” (2004).
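Cells were grown in 96-well plates and exposed to each compound for 48 hours at five concentrations; endpoints were interpolated linearly between bracketing concentrations, or set to the highest concentration if not reached. Here, GI50 denotes the concentration required for 50% inhibition of growth.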 Active and inactive are the calls of the source. Cut-off read from the data, not from the text of the source: active = GI50 up to about 1.1 µM and inactive = higher.

Columns and labels:
Test in all cases: NCI anticancer screen, dose series, 48 h
NCI-H522 = system: NCI-H522
SW-620 = system: SW-620
HCT-15 = system: HCT-15
HOP-62 = system: HOP-62
DU-145 = system: DU-145
UACC-62 = system: UACC-62
OVCAR-8 = system: OVCAR-8
PC-3 = system: PC-3
RPMI-8226 = system: RPMI-8226
NCI-H226 = system: NCI-H226
HOP-92 = system: HOP-92
SK-MEL-28 = system: SK-MEL-28
UACC-257 = system: UACC-257
KM12 = system: KM12
BT-549 = system: BT-549
Malme-3M = system: Malme-3M
Hs-578T = system: Hs-578T
CCRF-CEM = system: CCRF-CEM
NCI-H23 = system: NCI-H23

SMILES	GI50 (NCI-H522)	GI50 (SW-620)	GI50 (HCT-15) [µM]	GI50 (HOP-62)	GI50 (DU-145)	GI50 (UACC-62)	GI50 (OVCAR-8)	GI50 (PC-3)	GI50 (RPMI-8226)	GI50 (NCI-H226)	GI50 (HOP-92)	GI50 (SK-MEL-28)	GI50 (UACC-257)	GI50 (KM12)	GI50 (BT-549)	GI50 (Malme-3M)	GI50 (Hs-578T)	GI50 (CCRF-CEM)	GI50 (NCI-H23)
BrCc1ccc(CBr)c2c1-c1c(CBr)ccc3ccc(CBr)c-2c13	> 100 µM (inactive)	> 100 µM (inactive)	> 100	> 100 µM (inactive)	> 100 µM (inactive)	> 100 µM (inactive)	> 100 µM (inactive)	36.6 µM (inactive)	95.7 µM (inactive)	> 100 µM (inactive)	> 100 µM (inactive)	> 100 µM (inactive)	> 100 µM (inactive)	> 100 µM (inactive)	> 100 µM (inactive)	> 100 µM (inactive)	53.2 µM (inactive)		
O=C1NC(c2c(Cl)cccc2Cl)Nc2ccccc21 (configuration not stated)	25.9 µM (inactive)	30.5 µM (inactive)	49.7	81.7 µM (inactive)	29.2 µM (inactive)	37 µM (inactive)	47.1 µM (inactive)	71.1 µM (inactive)	50.5 µM (inactive)	40.2 µM (inactive)	25.4 µM (inactive)	73.3 µM (inactive)	> 100 µM (inactive)	16.4 µM (inactive)	60 µM (inactive)	24.8 µM (inactive)	19.6 µM (inactive)	> 10 µM (inactive)	
COc1c(CC=C(C)C)c(O)c(C(CC(C)C)c2c(O)c(CC=C(C)C)c(O)c(C(C)=O)c2O)c(O)c1C(C)=O (configuration not stated)	0.2 µM (active)	0.48 µM (active)	0.4	1.4 µM (inactive)	2.32 µM (inactive)	0.527 µM (active)	0.385 µM (active)	0.305 µM (active)	0.419 µM (active)	1.24 µM (inactive)	0.191 µM (active)	0.695 µM (active)	1.45 µM (inactive)	0.998 µM (active)	1.62 µM (inactive)	0.638 µM (active)	1.07 µM (active)	0.278 µM (active)	0.275 µM (active)
Oc1ccc(CCc2cc(O)cc(O)c2)cc1 [DIHYDRORESVERATROL]	> 100 µM (inactive)	> 100 µM (inactive)	22.7	> 100 µM (inactive)	> 100 µM (inactive)	47.1 µM (inactive)	> 100 µM (inactive)	> 100 µM (inactive)	23.4 µM (inactive)	53.5 µM (inactive)	> 100 µM (inactive)	> 100 µM (inactive)	> 100 µM (inactive)	> 100 µM (inactive)	> 100 µM (inactive)	> 100 µM (inactive)	> 100 µM (inactive)		> 100 µM (inactive)
